In data set [1] the test system is MV4;11 leukemia cells carrying MLL-AF4 fusion. Kind of data set: cell viability assay (WST-8), MV4;11. Format: cell-based. As to conditions: Homo sapiens, MV4-11, 96 h, read-out: Cell Growth Inhibition IC50 (μM) MV-4-11.
Procedure: (§2) To assess cell viability, MOLM-13 leukemia cells carrying MLL-AF9 fusion, MV4;11 leukemia cells carrying MLL-AF4 fusion or HL-60 leukemia cells carrying no MLL fusion were seeded 1×10^4 cell/well in 96-well plates and treated with an inhibitor for 4 days at different concentrations, in culture media containing 0.2% DMSO as the final concentration. Cell viability was determined using the WST-8 cell proliferation assay kit (Dojindo Molecular Technologies) according to manufacturer's instructions. Three independent experiments in triplicates were performed.
For data set [2], the system named is HL-60 leukemia cells carrying no MLL fusion. Nature of the data set: cell viability assay (WST-8), HL-60. As to conditions: for IC50: read-out: Cell Growth Inhibition IC50 (μM) HL-60. Format: cell-based. The protocol: Cell viability was determined using the WST-8 cell proliferation assay kit (Dojindo Molecular Technologies) according to manufacturer's instructions. Three independent experiments in triplicates were performed.
(Tetrazolium dyes change colour on reduction, which living cells bring about.)

For another data set, the target named is T1, MLL complex (Homo sapiens, UniProt P61964).
T1 construct: full length human WDR5 with N-terminal 6×His tag; purchased Activmotif (Carlsbad, Calif.)
Nature of the data set: AlphaLISA MLL HMT functional assay (cell-free). It is filed as biochemical. As to conditions: read-out: Inhibition of MLL HMT Activity IC50 ± SD. For orientation: Bead proximity is the source of the signal in Alpha formats.

In data set [3] the test system is MOLM-13 leukemia cells carrying MLL-AF9 fusion. Nature of the data set: cell viability assay (WST-8), MOLM-13. As to conditions: Homo sapiens, MOLM-13, 96 h, read-out: Cell Growth Inhibition IC50 (μM) MOLM-13. Format: cell-based.
Procedure: as §2
The target of another data set is T2, WDR5 (Homo sapiens, UniProt P61964).
T2 construct: N-terminal His-tagged WDR5 protein (residues 24-334), named WDR5Δ23; made in house; host or cells: E. coli Rosetta 2 (DE3)
Nature of the data set: fluorescence polarization (FP) based competitive binding assay to WDR5 protein.

Data set [4] can be described thus: stability in cell culture media. It is filed as physicochemical. As to conditions: up to 7 days; data not shown. The protocol: To assess the effect of long-term treatment of compound Cpd. No. 5 on leukemia cells, MOLM-13 and MV4;11 cell lines were plated at a density of 5×10^4 cell/ml in 24-well plates (2 ml/well), and treated with the relevant concentrations. On day 4, cell viability for each treatment was measured using the WST-8 cell count kit. Then 10% of viable cells from each well were transferred to freshly prepared medium containing corresponding concentrations of compound Cpd. No. 5 and cultured for additional 3 days. On day 7, cell viability for each treatment was determined. In this experiment, 100,000 cells were seeded in each well in 24-well plates, whereas the cell growth inhibition data obtained for Cpd. No. 64 in Table 2 was obtained by seeding 10,000 cells in 96-well plates. Additionally, Cpd. No. 5 is stable in cell culture media up to 7 days (data not shown).

The next data set concerns the target SET1a (Homo sapiens, UniProt O15047). Kind of data set: HMT assay, SET1 family specificity. It is filed as biochemical. As to conditions: up to 100 μM; data not shown. The protocol: (§1) The specificity of Cpd. No. 5 was tested against MLL and other SET1 family members (MLL2, MLL3, MLL4, SET1a and SET1b) using the previously published HMT assays (Karatas et al., J. Med. Chem. 53:5179-5185 (2010)). Cpd.

The next data set deals with MLL3 (Homo sapiens, UniProt Q8NEZ4). Kind of data set: HMT assay, SET1 family specificity. It is filed as biochemical. As to conditions: up to 100 μM; data not shown. The protocol: as §1
For the next data set, the system named is MLL4. Kind of data set: HMT assay, SET1 family specificity. Format: biochemical. As to conditions: up to 100 μM; data not shown. The protocol: as §1
In a further data set the target is SET1b (Homo sapiens, UniProt Q9UPS6). Kind of data set: HMT assay, SET1 family specificity. It is filed as biochemical. As to conditions: up to 100 μM; data not shown. The protocol: as §1
The next data set relates to MLL2. Kind of data set: HMT assay, SET1 family specificity. Format: biochemical. As to conditions: up to 100 μM; data not shown. The protocol: as §1
Setting [5] is: Homo sapiens, HL-60, 96 h, 4 days treatment.
The mark [6] stands for this setting: calculated from IC50 by published equation, read-out: Binding Affinity to WDR5 Ki ± SD.
[7] abbreviates: read-out: Binding Affinity to WDR5 IC50 ± SD.

Each structure is given as a SMILES string. Like-named read-outs stand apart in the source and are kept apart here. Starred links: 1 amine or outer side, 2 acyl side, 3 side chain; linkers in the order of their positions; H or OH if unused. Positions of bridges follow the written chain, without caps; N, C: chain ends. Non-standard residues stand in square brackets, D forms with d. Residues, ends and D or L forms follow the SMILES beside them. *: point of attachment. dαMeLys(Me) = CN(CCCC[C@@](C)(N[*:1])C(=O)[*:2])[*:3]; dαMeDab = C[C@](CCN[*:3])(N[*:1])C(=O)[*:2]; Arg(Me2s) = CN=C(NC)NCCC[C@H](N)C(=O)O; dPhg(4-F) = N[C@@H](C(=O)O)c1ccc(F)cc1; Arg(Me) = CNC(=N)NCCC[C@H](N)C(=O)O; d(αMeOrn) = C[C@@](N)(CCCN)C(=O)O; d(αMeK) = C[C@@](N)(CCCCN)C(=O)O; dPhg = N[C@@H](C(=O)O)c1ccccc1; dDab = NCC[C@@H](N)C(=O)O; Isobutyryl = CC(C)C(=O)*; Abu = CC[C@H](N)C(=O)O

This is an account of results in patent publication US20210130401A1, “PEPTIDOMIMETIC INHIBITORS OF THE WDR5-MLL INTERACTION” (THE REGENTS OF THE UNIVERSITY OF MICHIGAN, priority 2017, published 2021).

Source text for MLL complex: To avoid multiple wash and transfer steps, an amplified luminescent proximity homogeneous assay (AlphaLISA) was developed and optimized to evaluate the MLL HMT inhibitory activities of the Compounds of the Disclosure.
In this assay, recombinant nucleosomes are initially treated with the MLL complex for methylation in the presence of S-Adenosyl methionine (SAM) as cofactor before stopping the reaction with high salt buffer. Then, anti-H3K4Mel/2 antibody, which is covalently linked to acceptor beads, and biotinylated anti-H3 (C-terminus) antibody were added.
Anti-Histone H3 Lysine 4 (H3K4mel-2) AlphaLISA acceptor beads, AlphaScreen Streptavidin donor beads and biotinylated anti-H3 (C-terminus) antibody were obtained from PerkinElmer Life Sciences (Waltham, Mass.). 2.5 μl of compound serial dilutions in assay buffer with 4% DMSO and 5 μl of pentameric MLL complex solution were added into a white low volume 384 well microtiter plate which was incubated for 30 minutes with gentle shaking at room temperature, followed by adding 2.5 μl of SAM/Nucleosome mixture. The methylation reaction was performed in 50 mM Tris, pH 8.5 with 1 mM DTT and 0.01% Tween-20 added right before the assay. Final concentrations of MLL complex, SAM, and nucleosomes were 5 nM, 200 nM, and 3 nM, respectively. Final DMSO in the reaction mixture was 1%. The reaction was allowed to perform for 120 minutes in dark with gentle shaking at room temperature. […] 5 μL of high salt stopping solution (50 mM Tris, pH 7.4 with 1 M NaCl, 0.1% Tween-20, and 0.3% poly-L-Lysine) was added to stop the methylation reactions for 15 minutes. 5 μl of 5× acceptor beads/biotinylated anti-H3 antibody mixture in detection buffer (50 mM Tris, pH 7.4 with 0.3 M NaCl, 0.1% Tween-20, and 0.001% poly-L-Lysine) was added, followed by 1 hour incubation at room temperature to allow full interaction between antibodies and methylated nucleosomes. Add 5 μL of 5× streptavidin donor beads in detection and incubate 30 minutes.
Procedure for WDR5: The plates were incubated at room temperature on a shaker for 3h, and then the mP values were measured using the Tecan Infinite M-1000 plate reader (Tecan U.S., Research Triangle Park, N.C.).

For orientation: IC50 means the concentration that inhibits the measured activity by half. In general, Ki refers to a dissociation constant, usually derived from enzyme kinetics or from competition with a known ligand. With `CC[C@@H]1NC(=O)[C@H](CCCNC(=N)N)NC(=O)[C@H](NC(=O)C(C)C)CCNC(=O)[C@@H](c2ccccc2)NC1=O` [Cpd. No. 1, N-((3R,6S,9S,12R)-6-ethyl-9-(3-guanidinopropyl)-2,5,8,11-tetraoxo-3-phenyl-1,4,7,10-tetraazacyclotetradecan-12-yl)isobutyramide] (Isobutyryl-[dDab]R[Abu][dPhg]; lactam 1-C), the IC50 in data set [1] (4 days treatment) is 43.4 µM; in data set [2] (setting [5]), more than 100 µM; on MLL complex, 1.8 ± 0.4 nM; in [3] (4 days treatment), 42.8 µM; on WDR5 (setting [7]) it was 6.2 ± 0.5 nM. Further, at WDR5 (setting [6]), the Ki was 0.8 ± 0.1 nM.
With `CC[C@@H]1NC(=O)[C@H](CCCNC(=N)NC)NC(=O)[C@](C)(NC(=O)C(C)C)CCNC(=O)[C@@H](c2ccccc2)NC1=O` [Cpd. No. 5, N-((3R,6S,9S,12R)-6-ethyl-12-methyl-9-(3-(3-methylguanidino)propyl)-2,5,8,11-tetraoxo-3-phenyl-1,4,7,10-tetraazacyclotetradecan-12-yl)isobutyramide] (Isobutyryl-[dαMeDab][Arg(Me)][Abu][dPhg]; lactam 1-C), the IC50 in [1] (4 days treatment) was determined as 0.25 µM; in [2] (4 days treatment), 8.56 ± 1.14 µM; in data set [2] (setting [5]), 8.6 µM; in [3] (4 days treatment), 0.21 µM; on WDR5 (Table 3A, read-out: Binding Affinity to WDR5 IC50) it was 2.13 nM; at WDR5 (setting [7]) it was 0.9 ± 0.2 nM. In addition, the “selectivity for the MV4;11 and MOLM-13 cell lines harboring MLL translocations over the HL-60 cell line” value in data set [2] (cell growth inhibition IC50 ratio) was more than 30 fold. Further, the “stability in cell culture media” value in [4] is recorded as “stable”. Besides, on SET1a, the “inhibition of the HMT activity of SET1a” value was “no or a minimal effect”. Moreover, the “inhibition of the HMT activity of MLL3” value against MLL3 is listed as “no or a minimal effect”. Also, in the data set with MLL4, the “inhibition of the HMT activity of MLL4” value is reported as “no or a minimal effect”. Also, the “inhibition of the HMT activity of SET1b” value at SET1b was “no or a minimal effect”. For the same molecule, the “inhibition of the HMT activity of MLL2” value in the data set with MLL2 is “no or a minimal effect”. Further, the Ki on WDR5 (Table 3A, read-out: Binding Affinity to WDR5 Ki) is less than 1 nM; on WDR5 (setting [6]), less than 1 nM.
As to `CC[C@@H]1NC(=O)[C@H](CCCNC(=N)N)NC(=O)[C@](C)(NC(=O)C(C)C)CCCCN(C)C(=O)[C@@H](c2ccc(F)cc2)NC1=O` [Cpd. No. 66, N-((3R,6S,9S,12R)-6-ethyl-3-(4-fluorophenyl)-9-(3-guanidinopropyl)-1,12-dimethyl-2,5,8,11-tetraoxo-1,4,7,10-tetraazacyclohexadecan-12-yl)isobutyramide] (Isobutyryl-[dαMeLys(Me)]R[Abu][dPhg(4-F)]; lactam 1-C), the IC50 is 5.2 ± 1.1 µM in [1]; 60 ± 19.7 µM in data set [2] (Homo sapiens, HL-60, 96 h); 16.2 ± 6.1 µM in data set [3]; 1.6 ± 1 nM at WDR5. Moreover, the Ki on WDR5 was less than 1 nM.
On to `CC[C@@H]1NC(=O)[C@H](CCCNC(=N)NC)NC(=O)[C@](C)(NC(=O)C(C)C)CCCCNC(=O)[C@@H](c2ccccc2)NC1=O` [Cpd. No. 68, N-((3R,6S,9S,12R)-6-ethyl-12-methyl-9-(3-(3-methylguanidino)propyl)-2,5,8,11-tetraoxo-3-phenyl-1,4,7,10-tetraazacyclohexadecan-12-yl)isobutyramide] (Isobutyryl-[d(αMeK)][Arg(Me)][Abu][dPhg]; lactam 1-C), for which the IC50 in data set [1] is 4.3 ± 1.5 µM; in [2] (Homo sapiens, HL-60, 96 h) it was more than 100 µM; in [3], 3.6 ± 0.8 µM; at WDR5 it was 1.1 ± 0.3 nM. At WDR5, this molecule gave a Ki of less than 1 nM.
On the same counts, the results for `CC[C@@H]1NC(=O)[C@H](CCCN/C(=N/C)NC)NC(=O)[C@](C)(NC(=O)C(C)C)CCCCNC(=O)[C@@H](c2ccccc2)NC1=O` [Cpd. No. 69, N-((3R,6S,9S,12R)-9-(3-((E)-2,3-dimethylguanidino)propyl)-6-ethyl-12-methyl-2,5,8,11-tetraoxo-3-phenyl-1,4,7,10-tetraazacyclohexadecan-12-yl)isobutyramide] (Isobutyryl-[d(αMeK)][Arg(Me2s)][Abu][dPhg]; lactam 1-C) are 15.2 ± 2.9 µM, 84.8 ± 13.2 µM, 31.5 ± 9.8 µM, 2.4 ± 0.7 nM and less than 1 nM.
As for `CC[C@@H]1NC(=O)[C@H](CCCNC(=N)N)NC(=O)[C@](C)(NC(=O)C(C)C)CCCNC(=O)[C@@H](c2ccccc2)NC1=O` [Cpd. No. 74, N-((3R,6S,9S,12R)-6-ethyl-9-(3-guanidinopropyl)-12-methyl-2,5,8,11-tetraoxo-3-phenyl-1,4,7,10-tetraazacyclopentadecan-12-yl)isobutyramide] (Isobutyryl-[d(αMeOrn)]R[Abu][dPhg]; lactam 1-C), the IC50 in [1] (4 days treatment) amounted to 1.29 µM; in data set [2] (setting [5]), 46.8 µM; in data set [3] (4 days treatment), 1.28 ± 0.01 µM; at WDR5 (setting [7]) it was 0.97 ± 0.13 nM. For the same molecule, on WDR5 (setting [6]), the Ki is less than 1 nM.
In the case of `CC[C@@H]1NC(=O)[C@H](CCCNC(=N)N)NC(=O)[C@](C)(NC(=O)C(C)C)CCCCCNC(=O)[C@@H](c2ccccc2)NC1=O` [Cpd. No. 75, N-((3R,6S,9S,12R)-6-ethyl-9-(3-guanidinopropyl)-12-methyl-2,5,8,11-tetraoxo-3-phenyl-1,4,7,10-tetraazacycloheptadecan-12-yl)isobutyramide], the IC50 was 15.1 ± 11.8 µM in data set [1] (4 days treatment), more than 100 µM in [2] (setting [5]), 37.6 ± 12.1 µM in [3] (4 days treatment) and 2.6 ± 0.2 nM on WDR5 (setting [7]). Besides, the Ki on WDR5 (setting [6]) was less than 1 nM.
Consider `CC[C@@H]1NC(=O)[C@H](CCCNC(=N)N)NC(=O)[C@](C)(NC(=O)C(C)C)CCCCCCNC(=O)[C@@H](c2ccccc2)NC1=O` [Cpd. No. 76, N-((3R,6S,9S,12R)-6-ethyl-9-(3-guanidinopropyl)-12-methyl-2,5,8,11-tetraoxo-3-phenyl-1,4,7,10-tetraazacyclooctadecan-12-yl)isobutyramide], for which the IC50 in [1] was determined as 3.2 ± 0.4 µM; in data set [2] (Homo sapiens, HL-60, 96 h), 29.7 ± 11.5 µM; at MLL complex, 216 ± 88 nM; in [3] it was 5.6 ± 0.7 µM; on WDR5, 1 ± 0.2 nM. This molecule showed a Ki at WDR5 of less than 1 nM.
Turning to `CC[C@@H]1NC(=O)[C@H](CCCNC(=N)N)NC(=O)[C@](C)(NC(=O)C(C)C)CCCCCCCCNC(=O)[C@@H](c2ccccc2)NC1=O` [Cpd. No. 77, N-((3R,6S,9S,12R)-6-ethyl-9-(3-guanidinopropyl)-12-methyl-2,5,8,11-tetraoxo-3-phenyl-1,4,7,10-tetraazacycloicosan-12-yl)isobutyramide], the IC50 is 7.5 ± 3 µM in data set [1]; more than 100 µM in data set [2] (Homo sapiens, HL-60, 96 h); 744 ± 79 nM at MLL complex; 21.6 ± 4.8 µM in data set [3]; 1.3 ± 0.2 nM at WDR5. On WDR5, the Ki was less than 1 nM.
